Key:
Assay in all cases: NCI-60 SRB cytotoxicity screen
Format in all cases: cell-based
[1] = tested on: UACC-257 (melanoma); conditions: Homo sapiens; UACC-257, single dose 10 μM; read-out: growth inhibition (GI%)
[2] = tested on: A549/ATCC (non-small cell lung cancer); conditions: Homo sapiens, single dose 10 μM, read-out: growth inhibition (GI%)
[3] = tested on: NCI-H522 (non-small cell lung cancer); conditions: Homo sapiens; NCI-H522, single dose 10 μM; read-out: growth inhibition (GI%)
[4] = tested on: NCI-H23 (non-small cell lung cancer); conditions: Homo sapiens; NCI-H23, single dose 10 μM; read-out: growth inhibition (GI%)
[5] = tested on: HOP-62 (non-small cell lung cancer); conditions: Homo sapiens; HOP-62, single dose 10 μM; read-out: growth inhibition (GI%)
[6] = tested on: HS 578T (breast cancer); conditions: Homo sapiens, single dose 10 μM, read-out: growth inhibition (GI%)
[7] = tested on: SK-MEL-28 (melanoma); conditions: Homo sapiens; SK-MEL-28, single dose 10 μM; read-out: growth inhibition (GI%)
[8] = tested on: SK-OV-3 (ovarian cancer); conditions: Homo sapiens; SK-OV-3, single dose 10 μM; read-out: growth inhibition (GI%)
[9] = tested on: UO-31 (renal cancer); conditions: Homo sapiens; UO-31, single dose 10 μM; read-out: growth inhibition (GI%)
[10] = tested on: MOLT-4 (leukemia); conditions: Homo sapiens; MOLT-4, single dose 10 μM; read-out: growth inhibition (GI%)
[11] = tested on: SF-539 (CNS cancer); conditions: Homo sapiens; SF-539, single dose 10 μM; read-out: growth inhibition (GI%)
[12] = tested on: K-562 (leukemia); conditions: Homo sapiens; K-652 [sic], single dose 10 μM; read-out: growth inhibition (GI%)
[13] = tested on: HCT-15 (colon cancer); conditions: Homo sapiens; HCT-15, single dose 10 μM; read-out: growth inhibition (GI%)
[14] = tested on: MDA-MB-231/ATCC (breast cancer); conditions: Homo sapiens, MDA-MB-231, read-out: growth inhibition (GI%);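 further: growth inhibition in percent at a single 10 µM dose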
[15] = tested on: A498 (renal cancer); conditions: Homo sapiens; A498, single dose 10 μM; read-out: growth inhibition (GI%)
[16] = tested on: RPMI-8226 (leukemia); conditions: Homo sapiens; RPMI-8226, single dose 10 μM; read-out: growth inhibition (GI%)
[17] = tested on: MCF7 (breast cancer); conditions: Homo sapiens; MCF7, single dose 10 μM; read-out: growth inhibition (GI%)
[18] = tested on: 786-0 (renal cancer); conditions: Homo sapiens; 786-0, single dose 10 μM; read-out: growth inhibition (GI%)
[19] = tested on: KM12 (colon cancer); conditions: Homo sapiens; KM12, single dose 10 μM; read-out: growth inhibition (GI%)
[20] = tested on: CCRF-CEM (leukemia); conditions: Homo sapiens, single dose 10 μM, read-out: growth inhibition (GI%)
[21] = tested on: UACC-62 (melanoma); conditions: Homo sapiens; UACC-62, single dose 10 μM; read-out: growth inhibition (GI%)
[22] = tested on: BT-549 (breast cancer); conditions: Homo sapiens; BT-549, single dose 10 μM; read-out: growth inhibition (GI%)
[23] = tested on: SF-295 (CNS cancer); conditions: Homo sapiens; SF-295, single dose 10 μM; read-out: growth inhibition (GI%)
[24] = tested on: EKVX (non-small cell lung cancer); conditions: Homo sapiens, single dose 10 μM, read-out: growth inhibition (GI%)
[25] = tested on: NCI-H460 (non-small cell lung cancer); conditions: Homo sapiens; NCI-H460, single dose 10 μM; read-out: growth inhibition (GI%)
[26] = tested on: NCI-H226 (non-small cell lung cancer); conditions: Homo sapiens; NCI-H226, single dose 10 μM; read-out: growth inhibition (GI%)
[27] = tested on: OVCAR-8 (ovarian cancer); conditions: Homo sapiens; OVCAR-8, single dose 10 μM; read-out: growth inhibition (GI%)
[28] = tested on: SNB-75 (CNS cancer); conditions: Homo sapiens, SNB-75, SNB-75, single dose 10 μM; read-out: growth inhibition (GI%)
[29] = tested on: HT29 (colon cancer); conditions: Homo sapiens, HT-29; HT29, single dose 10 μM; read-out: growth inhibition (GI%)
[30] = tested on: HL-60(TB) (leukemia); conditions: Homo sapiens, single dose 10 μM, read-out: growth inhibition (GI%)
[31] = tested on: PC-3 (prostate cancer); conditions: PC-3, single dose 10 μM; read-out: growth inhibition (GI%)
[32] = tested on: T-47D (breast cancer); conditions: Homo sapiens, T47D, single dose 10 μM, read-out: growth inhibition (GI%)
[33] = tested on: ACHN (renal cancer); conditions: Homo sapiens, single dose 10 μM, read-out: growth inhibition (GI%)
[34] = tested on: IGROV1 (ovarian cancer); conditions: Homo sapiens, IGROV-1; IGROV1, single dose 10 μM; read-out: growth inhibition (GI%)
[35] = tested on: NCI/ADR-RES (ovarian cancer); conditions: Homo sapiens, single dose 10 μM, read-out: growth inhibition (GI%)
[36] = tested on: MALME-3M (melanoma); conditions: Homo sapiens, single dose 10 μM, read-out: growth inhibition (GI%)

`CCc1cccc2cc(-c3cc(-c4ccc(Br)cc4)[nH]c(=S)c3C#N)c(Cl)nc12` [Compound 5e, 6-(4-Bromophenyl)-4-(2-chloro-8-ethylquinolin-3-yl)-2-thioxo-1,2-dihydropyridine-3-carbonitrile] showed an inhibition at 10 µM [1] of under 10%, an inhibition at 10 µM [2] of under 10% and an inhibition at 10 µM [3] of under 10%. The inhibition at 10 µM [4] was under 10%, the inhibition at 10 µM [5] was under 10% and the inhibition at 10 µM [6] was under 10%. It also gave an inhibition at 10 µM [7] of under 10%, an inhibition at 10 µM [8] of 11.2% and an inhibition at 10 µM [9] of 24.1%. The inhibition at 10 µM [10] was under 10%, the inhibition at 10 µM [11] was under 10% and the inhibition at 10 µM [12] was under 10%. The inhibition at 10 µM [13] was under 10%, the inhibition at 10 µM [14] was 12.9% and the inhibition at 10 µM [15] was under 10%. The inhibition at 10 µM [16] was 14.7%, the inhibition at 10 µM [17] was 19.7% and the inhibition at 10 µM [18] was under 10%. For the same compound, the inhibition at 10 µM [19] was under 10%, the inhibition at 10 µM [20] was under 10% and the inhibition at 10 µM [21] was under 10%. The inhibition at 10 µM [22] was under 10%, the inhibition at 10 µM [23] was under 10% and the inhibition at 10 µM [24] was under 10%. The inhibition at 10 µM [25] was under 10%, the inhibition at 10 µM [26] was under 10% and the inhibition at 10 µM [27] was under 10%. The inhibition at 10 µM [28] was 19.8%, the inhibition at 10 µM [29] was under 10% and the inhibition at 10 µM [30] was under 10%. It also gave an inhibition at 10 µM [31] of under 10%, an inhibition at 10 µM [32] of 10.4% and an inhibition at 10 µM [33] of under 10%. It also gave an inhibition at 10 µM [34] of under 10%, an inhibition at 10 µM [35] of under 10% and an inhibition at 10 µM [36] of under 10%.
